Like-named read-outs stand apart in the source and are kept apart here. Residues, ends and D or L forms follow the SMILES beside them. *: point of attachment. Cbz = O=C(OCc1ccccc1)*
What was measured:
[1] = cited from earlier work
mCherry-EGFP-Y151TetF [2] = experiment: Degradation mechanism: thalidomide-OH pretreatment, cereblon-mediated degradation; assay type: cell-based; conditions: pretreatment with 100 µM of Thal-OH, then sTCO-PEG2-CRBN
mCherry-EGFP-Y151TetF [3] = experiment: Degradation mechanism: proteasome inhibitor pre-treatment; assay type: cell-based; conditions: 10 μM inhibitor, 4 h pre-incubation; then 10 μM sTCO-PEG2-CRBN overnight
Experimental: FIGS. 16A-16B. Degradation mechanism of sTCO-PEG2-CRBN. FIG. 16A) The degradation of mCherry-EGFP-Y151TetF was reduced when cells were pre-treated with proteasome inhibitor MG132 or epoxomicin, validating that sTCO-PEG2-CRBN induced degradation is mediated by the proteasome.
For mechanistic insight into sTCO-PEG2-CRBN degradation (FIG. 16) cells were transfected as described above. A 10 μM working solution of media containing either MG132 or epoxomicin was made by adding 1 μL of the respective proteasome inhibitor (10 mM in DMSO) into 999 μL of complete medium. Following removal of TetF, 200 μL of media supplemented with either MG132, epoxomicin, or DMSO was added to each well and the cells were incubated for 4 h. Next, a solution containing 50 μM of sTCO-PEG2-CRBN was made by adding 5 μL of sTCO-PEG2-CRBN (10 mM in DMSO) into 995 μL of complete medium. Following the allotted time for proteasome inhibitor incubation, 50 μL of 50 μM sTCO-PEG2-CRBN was added directly to each well, for a final volume of 250 μL and final concentration of 10 μM of sTCO-PEG2-CRBN. The cells were then incubated overnight at 37° C. with 5% CO2 before lysis and western blot analysis.

mCherry-EGFP-G134TetF = experiment: In cellulo bioconjugation quantified with sTCO-CA and HaloTag; assay type: cell-based; conditions: sTCO-CA then HaloTag
Experimental: (§1) FIGS. 1A-1B. Experimental workflow for the quantification of bioconjugation to UAA-bearing proteins expressed in cells. Following expression of the POI bearing a UAA at any surface position (e.g., A-E), the FIG. 1A) sTCO-chloroalkane ligand or FIG. 1B) sTCO-E3 ligase ligand, is added to the media and undergoes a selective bioconjugation with the UAA. Excess ligand is washed away and cells are FIG. 1A) lysed or FIG. 1B) incubated with sTCO-chloroalkane then lysed. The lysate is incubated with HaloTag protein and the bioconjugation is quantified via western blot.
(§2) Before comparing the degradation of different mCherry-EGFP mutants, validating the extent of bioconjugation to TetF at each position was required. A method for quantifying in cellulo protein bioconjugation that utilizes a strained trans-cyclooctene chloroalkane (sTCO-CA) to react with TetF and subsequently dimerize with the self-labeling enzyme, HaloTag, was previously […]. Using this technique, the extent of bioconjugation mCherry-EGFP-I129TetF (~90%) and mCherry-EGFP-G134TetF (~55%, FIG. 4D) was quantified. Bioconjugation to two new mCherry-EGFP-TetF mutants using the same method was also quantified (FIG. 7). […] By determining the extent of bioconjugation to TetF mutants across the surface of mCherry-EGFP, variations in degradation due to incomplete bioconjugation could be evaluated. […]

mCherry-EGFP-I129TetF = experiment: as above; assay type: cell-based; conditions: sTCO-CA then HaloTag
Experimental: as §1, §2

MKP3 = conditions: cited from earlier work
DUSP1 = conditions: cited from earlier work

Structure (SMILES): C=Cc1ccccc1 [j]
- Second-order rate constant ([1]; Mixture (Org water) 50:50): 0.05 (50:50)^Ref 11 M^−1s^−1

Structure (SMILES): OCC1[C@@H]2C/C=C\CCC[C@@H]12 (stereo partly drawn) [b]
- Second-order rate constant ([1]; Aqueous solvent): 3300000^Ref 2 M^−1s^−1
- Second-order rate constant ([1]; Organic solvent): 22000^Ref 3 M^−1s^−1

Structure (SMILES): O=C1CCC(N2C(=O)c3cccc(O)c3C2=O)C(=O)N1 (stereo not drawn) [Thal-OH, thalidomide-OH]
- effect of thalidomide-OH pretreatment on sTCO-PEG2-CRBN degradation (mCherry-EGFP-Y151TetF [2]): reduced degradation

Structure (SMILES): OCC1[C@@H]2CCC#CCC[C@@H]12 (stereo partly drawn) [d]
- Second-order rate constant ([1]; Mixture (Org water) 55:45): 1245 (55:45)^Ref 6 M^−1s^−1
- Second-order rate constant ([1]; Organic solvent): 45^Ref 4 M^−1s^−1

Structure (SMILES): CC[C@H](C)[C@H](NC(=O)[C@H]([C@@H](C)CC)N(C)C(C)=O)C(=O)N[C@H](C(=O)N[C@@H](CC(C)C)C(=O)[C@@]1(C)CO1)[C@@H](C)O [epoxomicin]
- effect of proteasome inhibitor pre-treatment on sTCO-PEG2-CRBN induced degradation (mCherry-EGFP-Y151TetF [3]): reduced

Structure (SMILES): O=C(O)CC1CC2C=CC1C2 (stereo not drawn) [h]
- Second-order rate constant ([1]; Aqueous solvent): 1.9^Ref 9 M^−1s^−1

Structure (SMILES): CC(C)C[C@@H](C=O)NC(=O)[C@H](CC(C)C)NC(=O)[C@H](CC(C)C)NC(=O)OCc1ccccc1 [MG132] (Cbz-Leu-Leu-Leu-aldehyde)
- effect of proteasome inhibitor pre-treatment on sTCO-PEG2-CRBN induced degradation (mCherry-EGFP-Y151TetF [3]): reduced

Structure (SMILES): O=C(NCCOCCOCCCCCCCl)OCC1C2CC/C=C/CCC21 (stereo not drawn) [sTCO-CA]
- extent of bioconjugation (mCherry-EGFP-G134TetF): ~ 55%
- extent of bioconjugation (mCherry-EGFP-I129TetF): ~ 90%

Structure (SMILES): C=CCSC[C@H](N)C(=O)O [m]
- Second-order rate constant ([1]; Mixture (Org water) 50:50): 0.002 (50:50)^Ref 13 M^−1s^−1

Structure (SMILES): OC1CC/C=C\CCC1 (stereo not drawn) [a]
- Second-order rate constant ([1]; Aqueous solvent, ax iso): 80200 M⁻¹ s⁻¹
- Second-order rate constant ([1]; Aqueous solvent, eq iso): 22600 M⁻¹ s⁻¹
- Second-order rate constant ([1]; Mixture (Org water) 90:10): 2000 (90:10)^Ref 5 M^−1s^−1
- Second-order rate constant ([1]; Organic solvent): 1140^Ref 5 M^−1s^−1

Structure (SMILES): O=C1C(=Cc2ccccc2)C(NC2CCCCC2)c2ccccc21 (stereo not drawn) [BCI]
- inhibition of MKP3 (MKP3): known allosteric inhibitor
- inhibition of DUSP1 (DUSP1): inhibits DUSP1

Structure (SMILES): OCC1O[C@H]2C/C=C\CCC[C@H]2O1 (stereo partly drawn) [c]
- Second-order rate constant ([1]; Aqueous solvent, anti iso): 318000 M⁻¹ s⁻¹
- Second-order rate constant ([1]; Aqueous solvent, syn iso): 366000 M⁻¹ s⁻¹
- Second-order rate constant ([1]; Mixture (Org water) 55:45): 167000 (55:45)^Ref 3 M^−1s^−1

Reference: patent publication US20260335450A1, “TARGETED PROTEIN DEGRADATION THROUGH SITE-SPECIFIC RECRUITMENT OF UBIQUITIN LIGASE” (University of Pittsburgh - Of the Commonwealth System of …, priority 2023, published 2026)
